Assay results taken from US12077503B2, “Substituted cyclic amides and their use as herbicides” (FMC CORPORATION, priority 2015, dated 2024).

Columns and labels:
Format in all cases: in vivo
[1] = tested on: ducksalad (Heteranthera limosa); assay: Test C flooded paddy test; details: Flood, 0 is no effect, 100 is complete control
How it was run: (§1)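 Visual 0–100 injury rating versus controls (0 = no effect, 100 = complete control) at 13 to 15 d. 2-leaf-stage plants; pots flooded 3 cm over soil surface, test compound added to paddy water; greenhouse.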

[2] = tested on: sedge, umbrella (small-flower umbrella sedge, Cyperus difformis); assay: Test C flooded paddy test; details: Flood, 0 is no effect, 100 is complete control
How it was run: as §1

[3] = tested on: barnyardgrass (Echinochloa crus-galli); assay: Test C flooded paddy test; details: Flood, 0 is no effect, 100 is complete control
How it was run: as §1

[4] = tested on: rice (Oryza sativa); assay: Test C flooded paddy test; details: Flood, 0 is no effect, 100 is complete control
How it was run: as §1

[5] = tested on: soybean (Glycine max); assay: Test E postemergence; details: scale 0 to 100
Excerpt: (§2) Seeds of plant species selected from corn (Zea mays), soybean (Glycine max), velvetleaf (Abutilon theophrasti), lambsquarters (Chenopodium album), poinsettia, wild (wild poinsettia, Euphorbia heterophylla), pigweed, palmer (palmer pigweed, Amaranthus palmeri), waterhemp (common waterhemp, Amaranthus rudis), surinam grass (Brachiaria decumbens), crabgrass, large (large crabgrass, Digitaria sangumnalis), crabgrass, Brazil (Brazilian crabgrass, Digitaria horizontalis), Panicum, fall (fall Panicum, Panicum dichotomiflorum), foxtail, giant (giant foxtail, Setaria faberii), foxtail, green (green foxtail, Setaria viridis), goosegrass (Eleusine indica), johnsongrass (Sorghum halepense), ragweed (common ragweed, Ambrosia elatior), barnyardgrass (Echinochloa crus-galli), sandbur (southern sandbur, Cenchrus echinatus), arrowleaf Sida (Sida rhombifolia), ryegrass, Italian (Italian ryegrass, Lolium multiflorum), dayflower, VA (Virginia dayflower, Commelina virginica), field bindweed (Convolvulus arvensis), morningglory (Ipomoea coccinea), nightshade (eastern black nightshade, Solanum ptycanthum), Kochia (Kochia scoparia), nutsedge, yellow (yellow nutsedge, Cyperus esculentus), horseweed (Conyza canadensis), and beggarticks (hairy beggarticks, Bidens pilosa), were planted into a silt loam soil and treated preemergence with test chemicals formulated in a non-phytotoxic solvent mixture which included a surfactant.
(§3) At the same time, plants selected from these crop and weed species were planted in pots containing Sunshine Redi-Earth planting medium comprising spaghnum peat moss, vermiculite, starter nutrients and dolomitic limestone and treated with postemergence applications of a test chemical formulated in the same manner. Plants ranged in height from 2 to 18 cm (1- to 4-leaf stage) for postemergence treatments. Treated plants and controls were maintained in a greenhouse for 14 to 21 d, after which time all species were compared to controls and visually evaluated. Plant response ratings, summarized in Table E, are based on a scale of 0 to 100 where 0 is no effect and 100 is complete control. A dash (-) response means no test result.

[6] = tested on: waterhemp (common waterhemp, Amaranthus rudis); assay: Test E postemergence; details: scale 0 to 100
Excerpt: as §2, §3

[7] = tested on: corn (Zea mays); assay: Test E postemergence; details: scale 0 to 100
Excerpt: as §2, §3

[8] = tested on: crabgrass, large (large crabgrass, Digitaria sangumnalis); assay: Test E postemergence; details: scale 0 to 100
Excerpt: as §2, §3

[9] = tested on: foxtail, giant (giant foxtail, Setaria faberii); assay: Test E postemergence; details: scale 0 to 100
Excerpt: as §2, §3

[10] = tested on: pigweed, palmer (palmer pigweed, Amaranthus palmeri); assay: Test E postemergence; details: scale 0 to 100
Excerpt: as §2, §3

[11] = tested on: horseweed (Conyza canadensis); assay: Test E preemergence; details: scale 0 to 100
How it was run: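 Visual ratings from 0 (no effect) to 100 (complete control) were made versus controls 14 to 21 d after treatment. Seeds in silt loam were treated preemergence, or plants 2 to 18 cm tall in peat-based medium postemergence, with the test chemical in a surfactant-containing, non-phytotoxic solvent mixture, then held in a greenhouse.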

[12] = tested on: mustard, wild (wild mustard, Sinapis arvensis); assay: Test D preemergence; details: scale 0 to 100
Excerpt: Seeds of plant species selected from bluegrass (annual bluegrass, Poa annua), blackgrass (Alopecurus myosuroides), canarygrass (littleseed canarygrass, Phalaris minor), chickweed (common chickweed, Stellaria media), Galium (catchweed bedstraw, Galium aparine), bromegrass, downy (downy bromegrass, Bromus tectorum), field poppy (Papaver rhoeas), field violet (Viola arvensis), foxtail, green (green foxtail, Setaria viridis), deadnettle (henbit deadnettle, Lamium amplexicaule), ryegrass, Italian (Italian ryegrass, Lolium multiflorum), Kochia (Kochia scoparia), lambsquarters (Chenopodium album), oilseed rape (Brassica napus), pigweed (Amaranthus retroflexus), chamomile (scentless chamomile, Matricaria inodora), Russian thistle (Salsola kali), speedwell (bird's-eye speedwell, Veronica persica), barley, spring (spring barley, Hordeum vulgare), wheat, spring (spring wheat, Triticum aestivum), buckwheat, wild (wild buckwheat, Polygonum convolvulus), mustard, wild (wild mustard, Sinapis arvensis), oat, wild (wild oat, Avena fatua), radish, wild (wild radish, Raphanus raphanistrum), windgrass (Apera spica-venti), barley, winter (winter barley Hordeum vulgare), and wheat, winter (winter wheat, Triticum aestivum) were planted into a silt loam soil and treated preemergence with test chemicals formulated in a non-phytotoxic solvent mixture which included a surfactant.
Treated plants and controls were maintained in a controlled growth environment approximately 21 d after which time all species were compared to controls and visually evaluated. Plant response ratings, summarized in Table D, are based on a scale of 0 to 100 where 0 is no effect and 100 is complete control. A dash (-) response means no test result.

Q: What does the source list for `CN1C[C@H](c2ccc(F)c(F)c2)[C@@H](C(=O)Nc2ccccc2F)C1=O` [Compound 596, (3S,4S)-4-(3,4-difluorophenyl)-N-(2-fluorophenyl)-1-methyl-2-oxo-3-pyrrolidinecarboxamide]?
A: Plant response rating (scale of 0 to 100), Ducksalad ([1]; 31 g ai/ha): 30; Plant response rating (scale of 0 to 100), Ducksalad ([1]; 62 g ai/ha): 60; Plant response rating (scale of 0 to 100), Ducksalad ([1]; 125 g ai/ha): 90; Plant response rating (scale of 0 to 100), Ducksalad ([1]; 250 g ai/ha): 100; Plant response rating (scale of 0 to 100), Sedge, Umbrella ([2]; 31 g ai/ha): 0; Plant response rating (scale of 0 to 100), Sedge, Umbrella ([2]; 62 g ai/ha): 0; Plant response rating (scale of 0 to 100), Sedge, Umbrella ([2]; 125 g ai/ha): 0; Plant response rating (scale of 0 to 100), Sedge, Umbrella ([2]; 250 g ai/ha): 0; Plant response rating (scale of 0 to 100), Barnyardgrass ([3]; 31 g ai/ha): 0; Plant response rating (scale of 0 to 100), Barnyardgrass ([3]; 62 g ai/ha): 60; Plant response rating (scale of 0 to 100), Barnyardgrass ([3]; 125 g ai/ha): 75; Plant response rating (scale of 0 to 100), Barnyardgrass ([3]; 250 g ai/ha): 85; Plant response rating (scale of 0 to 100), Rice ([4]; 31 g ai/ha): 0; Plant response rating (scale of 0 to 100), Rice ([4]; 62 g ai/ha): 0; Plant response rating (scale of 0 to 100), Rice ([4]; 125 g ai/ha): 10; Plant response rating (scale of 0 to 100), Rice ([4]; 250 g ai/ha): 10

Q: For `CN1C[C@H](c2ccc(C(F)(F)F)cc2)[C@@H](C(=O)Nc2cccc(F)c2F)C1=O` [Compound 623, (3S,4S)—N-(2,3-difluorophenyl)-1-methyl-2-oxo-4-[4-(trifluoromethyl)phenyl]-3-pyrrolidinecarboxamide], which “Plant response rating: Soybean” value ([5]; 16 g ai/ha) is on record?
A: 0

Q: And the “Plant response rating: Soybean” value ([5]; 31 g ai/ha)?
A: 0

Q: What about the “Plant response rating: Soybean” value ([5]; 62 g ai/ha) of the same compound?
A: 20

Q: What about the “Plant response rating: Soybean” value ([5]; 125 g ai/ha) of the same compound?
A: 19

Q: What about the “Plant response rating: Soybean” value ([5]; 250 g ai/ha) of the same compound?
A: 35

Q: What about the “Plant response rating: Waterhemp” value ([6]; 16 g ai/ha) of the same compound?
A: 11

Q: And the “Plant response rating: Waterhemp” value ([6]; 31 g ai/ha)?
A: 45

Q: And the “Plant response rating: Waterhemp” value ([6]; 62 g ai/ha)?
A: 55

Q: What about the “Plant response rating: Waterhemp” value ([6]; 125 g ai/ha) of the same compound?
A: 65

Q: What about the “Plant response rating: Waterhemp” value ([6]; 250 g ai/ha) of the same compound?
A: 68

Q: And the “Plant response rating: Corn” value ([7]; 16 g ai/ha)?
A: 0

Q: And the “Plant response rating: Corn” value ([7]; 31 g ai/ha)?
A: 0

Q: And the “Plant response rating: Corn” value ([7]; 62 g ai/ha)?
A: 1

Q: And the “Plant response rating: Corn” value ([7]; 125 g ai/ha)?
A: 1

Q: And the “Plant response rating: Corn” value ([7]; 250 g ai/ha)?
A: 4

Q: What about the “Plant response rating: Crabgrass, Large” value ([8]; 16 g ai/ha) of the same compound?
A: 1

Q: What about the “Plant response rating: Crabgrass, Large” value ([8]; 31 g ai/ha) of the same compound?
A: 10

Q: And the “Plant response rating: Crabgrass, Large” value ([8]; 62 g ai/ha)?
A: 10

Q: And the “Plant response rating: Crabgrass, Large” value ([8]; 125 g ai/ha)?
A: 30

Q: What about the “Plant response rating: Crabgrass, Large” value ([8]; 250 g ai/ha) of the same compound?
A: 55

Q: What about the “Plant response rating: Foxtail, Giant” value ([9]; 16 g ai/ha) of the same compound?
A: 5

Q: And the “Plant response rating: Foxtail, Giant” value ([9]; 31 g ai/ha)?
A: 54

Q: What about the “Plant response rating: Foxtail, Giant” value ([9]; 62 g ai/ha) of the same compound?
A: 56

Q: What about the “Plant response rating: Foxtail, Giant” value ([9]; 125 g ai/ha) of the same compound?
A: 78

Q: And the “Plant response rating: Foxtail, Giant” value ([9]; 250 g ai/ha)?
A: 69

Q: What about the “Plant response rating: Pigweed, Palmer” value ([10]; 16 g ai/ha) of the same compound?
A: 6

Q: And the “Plant response rating: Pigweed, Palmer” value ([10]; 31 g ai/ha)?
A: 19

Q: What about the “Plant response rating: Pigweed, Palmer” value ([10]; 62 g ai/ha) of the same compound?
A: 43

Q: What about the “Plant response rating: Pigweed, Palmer” value ([10]; 125 g ai/ha) of the same compound?
A: 40

Q: And the “Plant response rating: Pigweed, Palmer” value ([10]; 250 g ai/ha)?
A: 68

Q: What about the “Plant response rating: Horseweed” value ([11]; 31 g ai/ha) of the same compound?
A: 80

Q: And the “Plant response rating: Horseweed” value ([11]; 62 g ai/ha)?
A: 90

Q: And the “Plant response rating: Horseweed” value ([11]; 125 g ai/ha)?
A: 90

Q: What about the “Plant response rating: Horseweed” value ([11]; 250 g ai/ha) of the same compound?
A: 90

Q: And the “Plant response rating: Mustard, Wild” value ([12]; 31 g ai/ha)?
A: 10

Q: What about the “Plant response rating: Mustard, Wild” value ([12]; 62 g ai/ha) of the same compound?
A: 15

Q: And the “Plant response rating: Mustard, Wild” value ([12]; 125 g ai/ha)?
A: 85

Q: And the “Plant response rating: Mustard, Wild” value ([12]; 250 g ai/ha)?
A: 85
